The text below walks through data of patent US8518896B2, “Treatment of cancers of the blood using selected glycomimetic compounds” (Glycomimetics, Inc., priority 2008, dated 2013).

The test system of this data set is neutrophils. Conditions: mice; 5-FU 150 mg/kg i.p. or cyclophosphamide 300 mg/kg i.p.; lasts for at least one week. The procedure:
At varying time points after treatment, blood samples are taken from the mice and analyzed for different cell types including neutrophils.
As diagrammed in FIG. 10, mice are treated with Compound #2 for 14 days by intraperitoneal injections (50 mg/kg) twice a day. On day 12 within this treatment period, a cohort of mice receives an injection of a chemotherapeutic drug; either 5-fluorouracil (150 mg/kg i.p.) or cyclophosphamide (300 mg/kg i.p.). On the third day after treatment with Compound #2, blood is obtained by cardiac puncture from one cohort of mice to determine a complete blood count (CBC). Other cohorts of mice are bled and analyzed (CBC) on days 5, 7, 9 and 15 after Compound #2 treatment.

With `O=P1(N(CCCl)CCCl)NCCCO1` (stereo not shown) [cyclophosphamide], the “neutropenia caused by the chemotherapeutic drug” value is recorded as “severe neutropenia”.
